Reference: patent publication US20260234167A1, “SOLID STATE FORMS OF DELGOCITINIB AND PROCESS THEREOF” (ASSIA CHEMICAL INDUSTRIES LTD., priority 2023, published 2026)

Columns and labels:
Assay type in all cases: physicochemical
[1] = Storage stability at different relative humidities at ambient temperature, XRPD after 7 days; conditions: for XRPD after storage at different relative humidities for 7 days: ambient temperature
Experimental: Powder X-ray Diffraction was performed on an X-Ray powder diffractometer Bruker D8 Advance; CuK radiation (λ=1.5418 Å); Lynx eye detector; laboratory temperature 22-25° C.; PMMA specimen holder ring. Prior to analysis, the samples were gently ground by means of mortar and pestle in order to obtain a fine powder. The ground sample was adjusted into a cavity of the sample holder and the surface of the sample was smoothed by means of a cover glass. Measurement parameters: Scan range: 2-40 degrees 2-theta; Scan mode: continuous; Step size: 0.05 degrees; Time per step: 0.5 s; Sample spin: 30 rpm; Sample holder: PMMA specimen holder ring with silicon low background. Samples of crystalline forms of Delgocitinib according to the disclosure, were subjected to conditions of different relative humidities at ambient temperature. XRPD analysis was performed on the samples after 7 days.

[2] = Storage stability at different relative humidities and temperatures in packed bags, XRPD after 1, 2, 3 and 6 months
Experimental: Powder X-ray Diffraction was performed on an X-Ray powder diffractometer Bruker D8 Advance; CuK radiation (λ=1.5418 Å); Lynx eye detector; laboratory temperature 22-25° C.; PMMA specimen holder ring. Prior to analysis, the samples were gently ground by means of mortar and pestle in order to obtain a fine powder. The ground sample was adjusted into a cavity of the sample holder and the surface of the sample was smoothed by means of a cover glass.
Measurement parameters: Scan range: 2-40 degrees 2-theta; Scan mode: continuous; Step size: 0.05 degrees; Time per step: 0.5 s; Sample spin: 30 rpm; Sample holder: PMMA specimen holder ring with silicon low background.
Samples of Delgocitinib polymorph forms according to the disclosure were subjected to conditions of different relative humidities at different temperatures. Forms DL1 was kept in low-density polyethylene bag (twist and tied) covered by triple laminated bag (heat and sealed). Forms DL2, DL3, DL10 and DL11 were kept in low-density polyethylene bag (twist and tied) and covered by triple laminated bag (heat and sealed), while 2 gram silica gel sachet was added in between the two bags.

[3] = Grinding experiments (strong grinding in mortar with pestle for 2 minutes), XRPD after grinding; conditions: for XRPD after grinding: about 20 mg ground in mortar with pestle for 2 minutes
Experimental: Powder X-ray Diffraction was performed on an X-Ray powder diffractometer Bruker D8 Advance; CuK radiation (λ=1.5418 Å); Lynx eye detector; laboratory temperature 22-25° C.; PMMA specimen holder ring. Prior to analysis, the samples were gently ground by means of mortar and pestle in order to obtain a fine powder. The ground sample was adjusted into a cavity of the sample holder and the surface of the sample was smoothed by means of a cover glass. Measurement parameters: Scan range: 2-40 degrees 2-theta; Scan mode: continuous; Step size: 0.05 degrees; Time per step: 0.5 s; Sample spin: 30 rpm; Sample holder: PMMA specimen holder ring with silicon low background. Samples of Delgocitinib forms according to the disclosure were subjected to strong grinding. In these experiments, about 20 mg of the sample was placed in a mortar and ground with a pestle for 2 minutes. XRPD analysis was performed on each sample after the grinding experiment (Table 4): […]

[4] = Stability to compression (2 tons, hydraulic press), XRPD after 2 minutes
Experimental: Powder X-ray Diffraction was performed on an X-Ray powder diffractometer Bruker D8 Advance; CuK radiation (λ=1.5418 Å); Lynx eye detector; laboratory temperature 22-25° C.; PMMA specimen holder ring. Prior to analysis, the samples were gently ground by means of mortar and pestle in order to obtain a fine powder. The ground sample was adjusted into a cavity of the sample holder and the surface of the sample was smoothed by means of a cover glass. Measurement parameters: Scan range: 2-40 degrees 2-theta; Scan mode: continuous; Step size: 0.05 degrees; Time per step: 0.5 s; Sample spin: 30 rpm; Sample holder: PMMA specimen holder ring with silicon low background. Samples of Delgocitinib were subjected to pressures of 2 tons (Atlas® Autopress hydraulic press, set to 2 tons). XRPD analysis was carried out on the samples after 2 minutes.

SMILES: C[C@H]1CN(C(=O)CC#N)[C@]12CCN(c1ncnc3[nH]ccc13)C2 [Form DL1, 3-[(3S,4R)-3-methyl-7-(7H-pyrrolo[2,3-d]pyrimidin-4-yl)-1,7-diazaspiro[3.4]octan-1-yl]-3-oxopropanenitrile]
- XRPD after storage at different relative humidities for 7 days ([1]; 20% relative humidity, listed as DL1): DL1
- Stability after exposure to high and low relative humidity conditions (conclusion in words) ([1]; 20-80% relative humidity, at least 7 days): stable
- XRPD after storage at different relative humidities for 7 days ([1]; 40% relative humidity, listed as DL1): DL1
- XRPD after storage at different relative humidities for 7 days ([1]; 60% relative humidity, listed as DL1): DL1
- XRPD after storage at different relative humidities for 7 days ([1]; 80% relative humidity, listed as DL1): DL1
- XRPD after storage at 25° C. at 60% RH ([2]; 1 month, listed as DL1): DL1
- XRPD after storage at 25° C. at 60% RH ([2]; 2 months, listed as DL1): DL1
- XRPD after storage at 25° C. at 60% RH ([2]; 3 months, listed as DL1): DL1
- XRPD after storage at 25° C. at 60% RH ([2]; 6 months, listed as DL1): DL1
- Storage stability (conclusion in words) ([2]; 25° C./60% RH and 40° C./75% RH, up to 6 months): highly storage stable
- XRPD after storage at 40° C. at 75% RH ([2]; 1 month, listed as DL1): DL1
- XRPD after storage at 40° C. at 75% RH ([2]; 2 months, listed as DL1): DL1
- XRPD after storage at 40° C. at 75% RH ([2]; 3 months, listed as DL1): DL1
- XRPD after storage at 40° C. at 75% RH ([2]; 6 months, listed as DL1): DL1
- XRPD after grinding ([3]; listed as DL1): DL1
- Resistance to polymorphic changes on grinding (conclusion in words) ([3]; strong grinding, 2 minutes): resistant to polymorphic changes
- XRPD after compression force (2 tons for 2 minutes) ([4]; listed as DL1): DL1
- Stability under high pressure conditions (conclusion in words) ([4]; 2 tons, 2 minutes): stable under high pressure conditions

SMILES: C[C@H]1CN(C(=O)CC#N)[C@]12CCN(c1ncnc3[nH]ccc13)C2 [Form DL2, 3-[(3S,4R)-3-methyl-7-(7H-pyrrolo[2,3-d]pyrimidin-4-yl)-1,7-diazaspiro[3.4]octan-1-yl]-3-oxopropanenitrile]
- XRPD after storage at different relative humidities for 7 days ([1]; 20% relative humidity, listed as DL2): DL2
- XRPD after storage at different relative humidities for 7 days ([1]; 40% relative humidity, listed as DL2): DL2
- XRPD after storage at different relative humidities for 7 days ([1]; 60% relative humidity, listed as DL2): DL2
- XRPD after storage at different relative humidities for 7 days ([1]; 80% relative humidity, listed as DL2): DL2
- XRPD after storage at 25° C. at 60% RH ([2]; 1 month, listed as DL2): DL2
- XRPD after storage at 25° C. at 60% RH ([2]; 2 months, listed as DL2): DL2
- XRPD after storage at 25° C. at 60% RH ([2]; 3 months, listed as DL2): DL2
- XRPD after storage at 25° C. at 60% RH ([2]; 6 months, listed as DL2): DL2
- XRPD after storage at 40° C. at 75% RH ([2]; 1 month, listed as DL2): DL2
- XRPD after storage at 40° C. at 75% RH ([2]; 2 months, listed as DL2): DL2
- XRPD after storage at 40° C. at 75% RH ([2]; 3 months, listed as DL2): DL2
- XRPD after storage at 40° C. at 75% RH ([2]; 6 months, listed as DL2): DL2
- XRPD after grinding ([3]; listed as DL2): DL2
- XRPD after compression force (2 tons for 2 minutes) ([4]; listed as DL2): DL2

SMILES: C[C@H]1CN(C(=O)CC#N)[C@]12CCN(c1ncnc3[nH]ccc13)C2 [Form DL3, 3-[(3S,4R)-3-methyl-7-(7H-pyrrolo[2,3-d]pyrimidin-4-yl)-1,7-diazaspiro[3.4]octan-1-yl]-3-oxopropanenitrile]
- XRPD after storage at different relative humidities for 7 days ([1]; 20% relative humidity, listed as DL3): DL3
- XRPD after storage at different relative humidities for 7 days ([1]; 40% relative humidity, listed as DL3): DL3
- XRPD after storage at different relative humidities for 7 days ([1]; 60% relative humidity, listed as DL3): DL3
- XRPD after storage at different relative humidities for 7 days ([1]; 80% relative humidity, listed as DL3): DL3
- XRPD after storage at 25° C. at 60% RH ([2]; 1 month, listed as DL3): DL3
- XRPD after storage at 25° C. at 60% RH ([2]; 2 months, listed as DL3): DL3
- XRPD after storage at 25° C. at 60% RH ([2]; 3 months, listed as DL3): DL3
- XRPD after storage at 25° C. at 60% RH ([2]; 6 months, listed as DL3): DL3
- XRPD after storage at 40° C. at 75% RH ([2]; 1 month, listed as DL3): DL3
- XRPD after storage at 40° C. at 75% RH ([2]; 2 months, listed as DL3): DL3
- XRPD after storage at 40° C. at 75% RH ([2]; 3 months, listed as DL3): DL3
- XRPD after storage at 40° C. at 75% RH ([2]; 6 months, listed as DL3): DL3
- XRPD after grinding ([3]; listed as DL3): DL3
- XRPD after compression force (2 tons for 2 minutes) ([4]; listed as DL3): DL3

SMILES: C[C@H]1CN(C(=O)CC#N)[C@]12CCN(c1ncnc3[nH]ccc13)C2 [Form DL10, 3-[(3S,4R)-3-methyl-7-(7H-pyrrolo[2,3-d]pyrimidin-4-yl)-1,7-diazaspiro[3.4]octan-1-yl]-3-oxopropanenitrile]
- XRPD after storage at different relative humidities for 7 days ([1]; 20% relative humidity, listed as DL10): DL10
- XRPD after storage at different relative humidities for 7 days ([1]; 40% relative humidity, listed as DL10): DL10
- XRPD after storage at different relative humidities for 7 days ([1]; 60% relative humidity, listed as DL10): DL10
- XRPD after storage at different relative humidities for 7 days ([1]; 80% relative humidity, listed as DL10): DL10
- XRPD after storage at 25° C. at 60% RH ([2]; 1 month, listed as DL10): DL10
- XRPD after storage at 25° C. at 60% RH ([2]; 2 months, listed as DL10): DL10
- XRPD after storage at 25° C. at 60% RH ([2]; 3 months, listed as DL10): DL10
- XRPD after storage at 25° C. at 60% RH ([2]; 6 months, listed as DL10): DL10
- XRPD after storage at 40° C. at 75% RH ([2]; 1 month, listed as DL10): DL10
- XRPD after storage at 40° C. at 75% RH ([2]; 2 months, listed as DL10): DL10
- XRPD after storage at 40° C. at 75% RH ([2]; 3 months, listed as DL10): DL10
- XRPD after storage at 40° C. at 75% RH ([2]; 6 months, listed as DL10): DL10
- XRPD after grinding ([3]; listed as DL10): DL10
- XRPD after compression force (2 tons for 2 minutes) ([4]; listed as DL10): DL10

SMILES: C[C@H]1CN(C(=O)CC#N)[C@]12CCN(c1ncnc3[nH]ccc13)C2 [Form DL11, 3-[(3S,4R)-3-methyl-7-(7H-pyrrolo[2,3-d]pyrimidin-4-yl)-1,7-diazaspiro[3.4]octan-1-yl]-3-oxopropanenitrile]
- XRPD after storage at different relative humidities for 7 days ([1]; 20% relative humidity, listed as DL11): DL11
- XRPD after storage at different relative humidities for 7 days ([1]; 40% relative humidity, listed as DL11): DL11
- XRPD after storage at different relative humidities for 7 days ([1]; 60% relative humidity, listed as DL11): DL11
- XRPD after storage at different relative humidities for 7 days ([1]; 80% relative humidity, listed as DL11): DL11
- XRPD after storage at 25° C. at 60% RH ([2]; 1 month, listed as DL11): DL11
- XRPD after storage at 25° C. at 60% RH ([2]; 2 months, listed as DL11): DL11
- XRPD after storage at 25° C. at 60% RH ([2]; 3 months, listed as DL11): DL11
- XRPD after storage at 25° C. at 60% RH ([2]; 6 months, listed as DL11): DL11
- XRPD after storage at 40° C. at 75% RH ([2]; 1 month, listed as DL11): DL11
- XRPD after storage at 40° C. at 75% RH ([2]; 2 months, listed as DL11): DL11
- XRPD after storage at 40° C. at 75% RH ([2]; 3 months, listed as DL11): DL11
- XRPD after storage at 40° C. at 75% RH ([2]; 6 months, listed as DL11): DL11
- XRPD after grinding ([3]; listed as DL11): DL11
- XRPD after compression force (2 tons for 2 minutes) ([4]; listed as DL11): DL11
